Measurements: US12514845B2, “Ionic-liquid-based formulations for the prevention or treatment of neurological diseases” (Universidade De Aveiro, priority 2022, dated 2026)
Like-named read-outs stand apart in the source and are kept apart here. Values belong to the molecule of their own block, whether it stands above or below them.

Key:
[1] = Solubility in water and PBS (saturation, UV-spectroscopy); format: physicochemical; settings: thermodynamic from solid, 37° C., minimum 72 h
Experimental: In an embodiment, the solutes N1(4)inh and mixture comprising [Chol]2[N1(4)inh]+N1(4)inh were added in excess to a fixed volume (500 μL) of water and PBS solution. These mixtures were incubated at 37° C., under constant agitation 1150 rpm and for a minimum of 72 h, using an Eppendorf Thermomixer Comfort equipment. Throughout this process, solute was added to the mixture, whenever necessary, i.e., until the solution saturation. All samples were filtered using syringe filters ([…]) to remove possible suspended solid particles.
(§1) In an embodiment, the quantification of N1(4)inh and [Chol]2[N1(4)inh] was carried by UV-spectroscopy, using a UV-spectrophotometry (SYNERGY|HT microplate reader, BioTek) at a wavelength of 416 nm and 480 nm, respectively. The interference of the PBS with the quantification method was also ascertained and blank control samples were always used.
as §1, with “embodiment, solutes (N1(4)inh and [Chol]2[N1(4)inh]+N1(4)inh) were added in excess to a fixed volume (500 μL) of water and PBS solution. […] The” for “embodiment, the”, “and [Chol]2[N1(4)inh]+N1(4)inh” for “and [Chol]2[N1(4)inh]”

[2] = Decomposition temperature by thermogravimetric analysis (TGA); format: physicochemical; settings: TGA (FIG. 5)
Experimental: In an embodiment, the decomposition temperature of [Chol]2[N1(4)inh]+N1(4)inh was evaluated by thermogravimetric analysis (TGA) and the results disclose that the mixture is thermally stable up to 200° C., as disclosed in FIG. 5.
In an embodiment, the decomposition temperature was determined by thermogravimetric analysis (TGA).

Nox1 = target: T1, Nox1 (Homo sapiens, UniProt Q9Y5S8); settings: Bae et al. 2016; cited from earlier work
T1 construct: host or cells: drosophila
T1 sequence (Q9Y5S8 1-564): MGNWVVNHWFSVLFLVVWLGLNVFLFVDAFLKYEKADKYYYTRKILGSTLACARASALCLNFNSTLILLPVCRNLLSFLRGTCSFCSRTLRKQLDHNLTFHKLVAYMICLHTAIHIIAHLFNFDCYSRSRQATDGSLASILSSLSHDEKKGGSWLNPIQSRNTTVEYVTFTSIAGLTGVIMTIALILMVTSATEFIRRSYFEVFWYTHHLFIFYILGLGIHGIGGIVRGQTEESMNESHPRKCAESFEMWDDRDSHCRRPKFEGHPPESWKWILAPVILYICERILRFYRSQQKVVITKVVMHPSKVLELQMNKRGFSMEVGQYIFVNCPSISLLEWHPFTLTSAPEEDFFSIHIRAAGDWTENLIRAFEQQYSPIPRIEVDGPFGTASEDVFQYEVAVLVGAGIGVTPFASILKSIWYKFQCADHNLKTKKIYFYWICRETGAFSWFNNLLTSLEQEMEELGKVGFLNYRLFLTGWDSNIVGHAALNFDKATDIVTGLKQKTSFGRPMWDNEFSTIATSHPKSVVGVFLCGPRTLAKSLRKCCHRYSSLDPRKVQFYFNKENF

Nox4 = target: T2, Nox4 (Homo sapiens, UniProt Q9NPH5); settings: Bae et al. 2016; cited from earlier work
T2 construct: host or cells: drosophila
T2 sequence (Q9NPH5 1-578): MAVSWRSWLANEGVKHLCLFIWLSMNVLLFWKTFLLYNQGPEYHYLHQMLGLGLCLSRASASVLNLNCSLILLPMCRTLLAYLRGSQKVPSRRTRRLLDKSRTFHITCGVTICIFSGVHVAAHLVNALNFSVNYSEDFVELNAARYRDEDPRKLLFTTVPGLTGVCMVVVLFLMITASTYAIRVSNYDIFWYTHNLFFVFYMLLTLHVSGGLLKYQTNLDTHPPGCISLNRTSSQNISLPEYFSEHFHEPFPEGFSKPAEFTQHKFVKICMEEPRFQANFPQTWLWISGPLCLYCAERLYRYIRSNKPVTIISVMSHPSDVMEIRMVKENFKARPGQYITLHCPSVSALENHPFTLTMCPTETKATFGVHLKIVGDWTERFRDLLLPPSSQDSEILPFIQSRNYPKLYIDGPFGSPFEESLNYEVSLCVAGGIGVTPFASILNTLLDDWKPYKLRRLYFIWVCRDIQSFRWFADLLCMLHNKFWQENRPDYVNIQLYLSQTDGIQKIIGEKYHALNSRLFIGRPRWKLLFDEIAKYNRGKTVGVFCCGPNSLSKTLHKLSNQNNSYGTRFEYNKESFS

dopaminergic neurons [3] = settings: experimental models of PD; Cristóvão et al. 2019; cited from earlier work
[4] = tested on: male wistar rats exposed to PQ; format: in vivo; settings: PQ 2.5 mg/kg/day subcutaneous 4 weeks
Experimental: (§2) In an embodiment, the biological neuroprotective effect of [Chol]2[N1(4)inh]+N1(4)inh+N1(4)inh when administrated via brain intraventricular infusion route was evaluated in a rat model for PD induced by the exposure to a low chronic dose of PQ, through the analysis of the progression of behavior dysfunction. In this model, the animals are exposed to the toxin during 30 days (4 weeks) and then keeped alive during more 30 days to allow the pathology to progress (Total 8 weeks). The administration of [Chol]2[N1(4)inh]+N1(4)inh started after the first 30 exposure to PQ, via brain intraventricle or intranasal route and lasted the second 30 days. Animals were euthanized at week 8.
In an embodiment, male wistar rats 8-12 week-old were housed in a temperature/humidity-controlled environment under 12 h light/dark cycle with free access to water and food and subjected to subcutaneous chronic administration of PQ, that was carried out using osmotic minipumps (Alzet Durect, Cupertino, CA) at a dose of 2.5 mg/kg/day with a fluid delivery rate of 0.25 μL/hr for a period of four weeks (Alzet model 2004, large pumps). Control groups were implanted with minipump filled with sterile saline, the vehicle used to dissolve PQ. […] Once the rat skull was exposed and, using a digital coordinates system, the infusion sites were determined setting the zero at the bregma point. […] To evaluate the neuroprotective function of the IL-based formulation when infused in brain ventricle, behavior function was evaluated. Motor coordination, balance and grip strength were analyzed using a rat rotarod apparatus model 47700 (Ugo Basile, Comerio, Italy). […] The training was performed in 2 consecutive days, on each day 4 test trials were assessed, each lasting 5 min. […] The rotarod test was performed under an accelerating protocol (4-40 RPM) for 5 min, and the latency to fall was recorded using a specific software. […]

[5] = tested on: male wistar rats exposed to PQ; format: in vivo; settings: PQ 2.5 mg/kg/day subcutaneous 4 weeks, week 8, vs control group (FIG. 22)
Experimental: as §2, with “via intranasal” for “via brain intraventricular infusion”, “in” for “in a”, “of PQ and” for “of PQ,”
In an embodiment, male wistar rats 8-12 week-old subjected to subcutaneous chronic administration of PQ, that was carried out using osmotic minipumps (Alzet Durect, Cupertino, CA) at a dose of 2.5 mg/kg/day with a fluid delivery rate of 0.25 μL/hr for a period of four weeks (Alzet model 2004, large pumps). […] To evaluate the neuroprotective function of the IL-based formulation when administrated via intranasal route, behavior function was evaluated. Motor coordination, balance and grip strength were analyzed using a rat rotarod apparatus model 47700 (Ugo Basile, Comerio, Italy). […] The training was performed in 2 consecutive days, on each day 4 test trials were assessed, each lasting 5 min. […]

[6] = Afonso 2017, MSc thesis; cited from earlier work
dopaminergic neurons [7] = settings: PD models; Afonso 2017; cited from earlier work

solubility ([1]; aqueous buffer, PBS, read-out: solubility in PBS): 8 ± 1 µg/mL
solubility ([1]; water, read-out: solubility in water): 11 ± 2 µg/mL
decomposition temperature (thermal stability) [2]: 200 °C
SMILES: CN1C(=S)N(C2CCCCC2)C(=O)C1=Cc1ccc(O)cc1O [N1(4)inh, 3-cyclohexyl-5-(2,4-dihydroxybenzylidene)-1-methyl-2-thiohydantoin]
inhibition of Nox1 (Nox1): effective inhibitor
inhibition of Nox4 (Nox4): partial inhibitor
neuroprotective potential (dopaminergic neurons [3]): high neuroprotective potential

SMILES: C[n+]1ccc(-c2cc[n+](C)cc2)cc1 [PQ, paraquat]
reduction in the distance travelled (open-field) ([4]; week 8, vs control (FIG. 20)): 55%
reduction of speed (open-field) ([4]; week 8, vs control (FIG. 21)): 50%
reduction in the latency to fall (rotarod) ([4]; week 8, vs control group (FIG. 19)): 43%
reduction in the latency to fall (rotarod) [5]: 47%

SMILES: COc1cc(C(C)=O)ccc1[O-].C[N+](C)(C)CCO [[Chol][Apo], cholinium apocynate]
increase in water solubility versus Apo [6]: 50 fold
6OHDA-induced toxicity in dopaminergic neurons (dopaminergic neurons [7]): significant reduction
